Laboratory results as given in patent publication US8278037B2, “N-acetylgalactosamine transferases and nucleic acids encoding the same” (National Institute of Advanced Industrial Science and …, priority 2002, dated 2012).

How the values were obtained:
Type in all cases: biochemical
NGalNAc-T1 [1] = target: T1, NGalNAc-T1 (Homo sapiens, UniProt Q76KP1); assay: Requirements of divalent cations in the activity
T1 sequence (Q76KP1 62-1039): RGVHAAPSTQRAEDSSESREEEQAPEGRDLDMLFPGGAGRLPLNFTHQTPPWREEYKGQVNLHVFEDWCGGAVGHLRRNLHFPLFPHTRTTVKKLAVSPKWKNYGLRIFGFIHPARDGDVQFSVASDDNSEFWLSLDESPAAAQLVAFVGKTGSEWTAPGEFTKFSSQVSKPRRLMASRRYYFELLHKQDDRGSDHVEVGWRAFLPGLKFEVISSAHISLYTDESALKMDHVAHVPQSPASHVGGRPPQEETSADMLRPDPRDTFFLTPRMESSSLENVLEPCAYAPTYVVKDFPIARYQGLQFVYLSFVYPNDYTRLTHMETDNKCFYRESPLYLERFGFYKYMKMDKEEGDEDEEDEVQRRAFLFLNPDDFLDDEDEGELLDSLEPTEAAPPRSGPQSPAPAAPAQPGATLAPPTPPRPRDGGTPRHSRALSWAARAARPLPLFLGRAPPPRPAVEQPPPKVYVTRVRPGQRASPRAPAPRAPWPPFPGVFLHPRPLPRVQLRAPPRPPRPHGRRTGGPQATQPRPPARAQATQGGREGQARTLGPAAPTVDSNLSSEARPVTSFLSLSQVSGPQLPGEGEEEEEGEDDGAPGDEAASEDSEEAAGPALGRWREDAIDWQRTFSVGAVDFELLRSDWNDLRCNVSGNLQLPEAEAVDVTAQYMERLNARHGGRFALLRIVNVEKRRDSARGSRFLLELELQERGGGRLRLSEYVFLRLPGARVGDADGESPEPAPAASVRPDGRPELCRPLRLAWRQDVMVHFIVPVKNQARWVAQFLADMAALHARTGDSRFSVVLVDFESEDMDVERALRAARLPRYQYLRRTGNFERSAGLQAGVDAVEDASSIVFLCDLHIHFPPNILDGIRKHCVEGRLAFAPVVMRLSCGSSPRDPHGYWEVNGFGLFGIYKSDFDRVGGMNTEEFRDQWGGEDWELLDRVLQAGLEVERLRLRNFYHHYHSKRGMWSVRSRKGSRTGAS
Description: (§1) In addition, the value (263.21 dpm) of MES (pH 6.75) was adopted as a blank value in the case of a non-enzyme. Further, when pH of HEPES buffer was 7.4 for NGalNAc-T1 and 6.75 for NGalNAc-T2, the highest value was shown. […] Hereinafter, MES (pH 6.5) was used in each of experiments.
(§2) Generally, glycosyl transferases require frequently divalent cations. The activity of each enzyme was studied by adding various divalent cations. Consequently, the high values were represented when Mn^2+ in NGalNAc-T1, and Mg^2+, Mn^2+ and Co^2+ in NGalNAc-T2 were added (see Table 5). […] From the above results, it was explained that both enzymes require divalent cations.

NGalNAc-T2 [2] = target: T2, NGalNAc-T2 (Homo sapiens, UniProt Q6L9W6, K411R); assay: Requirements of divalent cations in the activity
Description: as §1, §2

NGalNAc-T1 [3] = target: T1, NGalNAc-T1; assay: Assay for acceptor substrates of glycosyl-transferase activities (GalNAc-T assay, HPLC); settings: Table 6, O-glycan type acceptors 500 μM; GlcNAcβ-Bz = 100
Method: (§3) For the reaction of GalNAc-T assay, 50 mM MES buffer (pH 6.5) containing 0.1% triton X-100, 1 mM UDP-GalNAc, 10 mM MnCl2 and 500 μM each acceptor substrate was used. A 10 μl of enzyme solution for 20 μl of each reaction mixture were added and incubated at 37° C. for various periods. After the incubation the mixture was filtrated with Ultrafree-MC column (Millipore, Bedford, Mass.), and 10 μl aliquot was subjected to reversed-phase high performance liquid chromatography (HPLC) on an ODS-80Ts QA column (4.6×250 mm; Tosoh, Tokyo, Japan). A 0.1% TFA/H2O with 12% acetonitrile was used as a running solution. An ultraviolet spectrophotometer (absorbance at 210 nm), SPD-10AVP (Shimazu, Kyoto, Japan) was used for detection of the peaks. When the pyridyl amino-labeled oligosaccharides were utilized as acceptor substrates, 50 nM substrates were added into the reaction mixtures. For the analyses of the products derived from pyridyl amino labeled oligosaccharides, 100 mM acetic acid/triethylamine (pH4.0) was used as a running solution and the products were eluted with a 30-70% gradient of 1% 1-butanol in running solution at a flow rate of 1.0 ml/min at 55° C.
(§4) To investigate the specificity for acceptor substrates, N- and O-glycans containing GlcNAc on their non-reducing termini were utilized.

NGalNAc-T2 [4] = target: T2, NGalNAc-T2; assay: as above; settings: Table 6, O-glycan type acceptors 500 μM; GlcNAcβ-Bz = 100
Method: as §3, §4

NGalNAc-T1 [5] = target: T1, NGalNAc-T1; assay: Search for donor substrates, radioactive glycosyltransferase assay; settings: mixed mono-saccharide acceptor substrates, 16 hours
Method: (§5) 15 μg of pFLAG-NGalNAc-T1 or pFLAG-NGalNAc-T2 was induced into 2×10^6 of COS-1, cells which were cultured overnight in DMEM (Dulbecco's modified Eagle's medium) including 10% FCS (fetal calf serum), using Lipofectamine 2000 (Invitrogen Co.) as a protocol provided by the same company. A supernatant of 48-72 hours was collected. The supernatant was mixed with NaN3 (0.05%), NaCl (150 mM), CaCl2 (2 mM) and an anti-M1 resin (Sigma Co.) (50 μl), and the mixture was stirred overnight at 4° C. The solution of reaction mixture was centrifuged (3000 rpm, 5 min, 4° C.) to collect a pellet. The pellet was combined with 900 μl of 2 mM CaCl2/TBS and re-centrifuged (2000 rpm, 5 min, 4° C.), after which the pellet was suspended in 200 μl of 1 mM CaCl2/TBS to give a sample for assaying activity (NGalNAc-T1 or NGalNAc-T2 enzyme solution).
(§6) A search for a donor substrate of the enzyme of the present invention was performed on various mono-saccharide acceptor substrates, using […] of enzyme solution and various acceptor substrates.
(§7) The acceptor substrates were prepared so that each of Gal-α-pNp, Gal-β-oNp, GalNAc-α-Bz, GalNAc-β-pNp, GlcNAc-α-pNp, GlcNAc-β-pNp, Glc-α-pNp, Glc-β-pNp, GlcA-β-pNp, Fuc-α-pNp, Man-α-pNp (thereinbefore, CALBIOCHEM Co.), Xyl-α-pNp, Xyl-β-pNp (thereinbefore, SIGMA Co.) was included in 2.5 nmol/20 μl. Further, the solutions of various donor substrates (UDP-GalNAc, UDP-GlcNAc, UDP-Gal, GDP-Man, UDP-GlcA, UDP-Xyl and GDP-Fuc, thereinbefore, SIGMA Co.) are shown in Table 3.
(§8) All of reaction times were 16 hours. After reaction, non-reactive acceptor substrates with radioactivity were removed with SepPack C18 column (Waters CO.), and radioactivity from donor substrates integrated into acceptor substrates was determined with a liquid scintillation counter.

NGalNAc-T2 [6] = target: T2, NGalNAc-T2; assay: as above; settings: mixed mono-saccharide acceptor substrates, 16 hours
Method: as §5, §6, §7, §8

NGalNAc-T1 [7] = target: T1, NGalNAc-T1; assay: Search for acceptor substrates, each acceptor by itself; settings: acceptor 10 nmol/20 μl by itself
Method: as §7, §8
(§9) Further, in order to investigate acceptors, reactions were performed using each acceptor (10 nmol/20 μl) by itself. As a result, significant radioactivity was detected in the case of GlcNAc-β-pNp (NGalNAc-T1: 256.26 dpm, NGalNAc-T2: 1221.22 dpm). Based on the above results, it was explained that both of NGalNAc-T1 and NGalNAc-T2 are glycosyl transferases capable of transferring GalNAc to GlcNAc-T.

NGalNAc-T2 [8] = target: T2, NGalNAc-T2; assay: as above; settings: acceptor 10 nmol/20 μl by itself
Method: as §7, §8, §9

[9] = divalent cation etc. added, MES (pH 6.5)
[10] = divalent cation etc. added, MES (pH 6.5), blank 263.21 subtracted

Row | Incorporation of radioactivity (A) (NGalNAc-T1 [1]; [9]) [dpm] | (A) − (B) (NGalNAc-T1 [1]; [10]) [dpm] | Incorporation of radioactivity (A) (NGalNAc-T2 [2]; [9]) [dpm] | (A) − (B) (NGalNAc-T2 [2]; [10]) [dpm] | Compound | also measured
1 | 242.38 | −20.83 | 235.28 | −27.93 | O=C(O)CN(CCN(CC(=O)O)CC(=O)O)CC(=O)O [EDTA] | 
2 | 230.78 | −32.43 | 217.83 | −45.38 | [Ca+2].[Cl-].[Cl-] [CaCl2] | 
3 |  |  |  |  | CC(=O)N[C@H]1[C@H](OC[C@H]2O[C@H](Oc3ccc([N+](=O)[O-])cc3)[C@H](NC(C)=O)[C@@H](O[C@@H]3O[C@H](CO)[C@H](O)[C@H](O)[C@H]3O)[C@H]2O)O[C@H](CO)[C@@H](O)[C@@H]1O [GlcNAcβ1-6(Galβ1-3)GalNAcα-pNp] | Relative activity (%) (NGalNAc-T1 [3]): 15.2%; Relative activity (%) (NGalNAc-T2 [4]): 11.4%
4 | 519.47 | 256.26 | 1484.43 | 1221.22 | [Cl][Mn][Cl] [MnCl2] | enzyme activity on adding divalent cation, in words (NGalNAc-T1 [1]): high values; enzyme activity on adding divalent cation, in words (NGalNAc-T2 [2]): high values
5 |  |  |  |  | CC(=O)N[C@H]1[C@H](OCc2ccccc2)O[C@H](CO)[C@@H](O)[C@@H]1O [GlcNAcβ-Bz] | Relative activity (%) (NGalNAc-T1 [3]): 100%; Relative activity (%) (NGalNAc-T2 [4]): 100%
6 |  |  |  |  | [Cl-].[Cl-].[Co+2] [CoCl2] | (A) − (B) (NGalNAc-T1 [1]; pH 6.5): −22.30 dpm; Incorporation of radioactivity (A) (NGalNAc-T1 [1]; pH 6.5): 240.91 dpm; enzyme activity on adding divalent cation, in words (NGalNAc-T2 [2]): high values; (A) − (B) (NGalNAc-T2 [2]; pH 6.5): 867.42 dpm; Incorporation of radioactivity (A) (NGalNAc-T2 [2]; pH 6.5): 1130.63 dpm
7 |  |  |  |  | CC(=O)N[C@H]1[C@@H](OP(=O)(O)OP(=O)(O)OC[C@H]2O[C@@H](n3ccc(=O)[nH]c3=O)[C@H](O)[C@@H]2O)O[C@H](CO)[C@H](O)[C@@H]1O [UDP-GalNAc, UDP-N-acetyl-D-galactosamine] | activity with donor substrate (radioactivity integrated into acceptor substrates) (NGalNAc-T1 [5]): highest activity; activity with donor substrate (radioactivity integrated into acceptor substrates) (NGalNAc-T2 [6]): highest activity
8 |  |  |  |  | CC(=O)N[C@H]1[C@H](Oc2ccc([N+](=O)[O-])cc2)O[C@H](CO)[C@@H](O)[C@@H]1O [GlcNAc-β-pNp] | radioactivity detected (NGalNAc-T1 [7]): 256.26 dpm; radioactivity detected (NGalNAc-T2 [8]): 1221.22 dpm
9 | 210.29 | −52.92 | 187.59 | −75.62 | [Cl-].[Cl-].[Zn+2] [ZnCl2] | 
10 |  |  |  |  | O=C(O)[C@H]1O[C@H](OP(=O)(O)OP(=O)(O)OC[C@H]2O[C@@H](n3ccc(=O)[nH]c3=O)[C@H](O)[C@@H]2O)[C@H](O)[C@@H](O)[C@@H]1O [UDP-GlcA] | activity with donor substrate (radioactivity integrated into acceptor substrates) (NGalNAc-T1 [5]): little background; activity with donor substrate (radioactivity integrated into acceptor substrates) (NGalNAc-T2 [6]): little background
11 |  |  |  |  | CC(=O)NC1C(OC2C(O)C(CO)OC(Oc3ccc([N+](=O)[O-])cc3)C2NC(C)=O)OC(CO)C(O)C1O (centres unmarked) [GlcNAcβ1-3GalNAcα-pNp] | Relative activity (%) (NGalNAc-T1 [3]): 20.0%; Relative activity (%) (NGalNAc-T2 [4]): 32.3%
12 | 256.36 | −6.85 | 3124.16 | 2860.95 | [Cl-].[Cl-].[Mg+2] [MgCl2] | enzyme activity on adding divalent cation, in words (NGalNAc-T2 [2]): high values
13 | 278.77 | 15.56 | 218.35 | −44.86 | [Cl][Cu][Cl] [CuCl2] | 
14 |  |  |  |  | CC(=O)N[C@H]1[C@@H](Oc2ccc([N+](=O)[O-])cc2)O[C@H](CO[C@@H]2O[C@H](CO)[C@@H](O)[C@H](O)[C@H]2NC(C)=O)[C@H](O)[C@@H]1O [GlcNAcβ1-6GalNAcα-pNp] | Relative activity (%) (NGalNAc-T1 [3]): 190.7%; Relative activity (%) (NGalNAc-T2 [4]): 220.4%

Row | Compound | Incorporation of radioactivity (A) (NGalNAc-T1 [1]; [9]) [dpm] | (A) − (B) (NGalNAc-T1 [1]; [10]) [dpm] | Incorporation of radioactivity (A) (NGalNAc-T2 [2]; [9]) [dpm] | (A) − (B) (NGalNAc-T2 [2]; [10]) [dpm] | also measured
15 | O=S(=O)([O-])[O-].[Cd+2] [CdSO4] | 203.39 | −59.82 | 217.92 | −45.29 | 
